# Test results: patent US8242151B2, “Tricyclic compounds” (Kyowa Hakko Kirin Co., Ltd., priority 2007, dated 2012)
# How the values were obtained:
# [1] = biological target: T1, GAL4-PPARγ chimeric nuclear receptor (human PPARγ ligand binding region) (Homo sapiens, UniProt P37231); assay: Transactivation assay of PPARγ by transient gene transfer (GAL4-PPARγ luciferase reporter); assay type: cell-based; conditions: HEK293EBNA cells, 24 hr; concentration showing 50% of efficacy; activity relative to pioglitazone 10 μmol/L = 100%
# T1 construct: expressed in transfected cells; host or cells: HEK293EBNA cells
# T1 sequence (P37231 174-475 isoform P37231-2): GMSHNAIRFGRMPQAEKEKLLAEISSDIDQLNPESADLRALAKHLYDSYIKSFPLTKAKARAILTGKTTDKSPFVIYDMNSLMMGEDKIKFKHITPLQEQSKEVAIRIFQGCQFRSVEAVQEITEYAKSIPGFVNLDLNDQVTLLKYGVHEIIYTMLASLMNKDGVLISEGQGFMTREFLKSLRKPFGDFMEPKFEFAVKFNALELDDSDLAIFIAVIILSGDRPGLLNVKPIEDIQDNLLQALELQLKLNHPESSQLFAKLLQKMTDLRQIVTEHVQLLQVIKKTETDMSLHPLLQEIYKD
# Experimental: The agonist activity of compound (I) to PPARγ was determined by a transactivation assay method using a chimeric nuclear receptor of a DNA binding region of a yeast transcription factor GAL4 and a PPARγ ligand binding region. Specifically, the PPARγ agonist activity of compound (I) was evaluated by the following method based on the method of Lehmann et al. (J Biol. Chem., 1995, vol. 270, page 12953).
# HEK293EBNA cells cultured in Dulbecco's Modified Eagle medium (Invitrogen) containing 10 v/v % fetal calf serum (Invitrogen) were used. 30 mL of the above-mentioned cells (density: 1×10^5 cells/mL) were inoculated in a […] culture dish (Iwaki Glass), and cultured overnight. Using SuperFect Transfection Reagent (QIAGEN), a plasmid expressing a GAL4-PPARγ chimeric nuclear receptor fusing 174-475 amino acids, which are human PPARγ ligand binding region, and 1-147 amino acids, which are GAL4 DNA binding region, and a reporter plasmid expressing a GAL4 responsive luciferase were transiently introduced into the cells at a proportion of 4:1. After 5 hr from gene introduction, the cells were detached from the culture dish, and the detached cells (density: 2×10^4 cells/mL) were inoculated by 100 μL in each well of a 96 well white plate (SUMITOMO BAKELITE), and cultured overnight. The medium was removed, compound (I) diluted in various concentrations with serum-free Dulbecco's Modified Eagle medium was added by 100 μL, and the mixture was reacted under a 5% carbon dioxide gas stream (5% CO2) at 37° C. for 24 hr. On the other hand, as a positive control, 10 μmol/L of pioglitazone (100 μL) was added, and the mixture was reacted under a 5% carbon dioxide gas stream (5% CO2) at 37° C. for 24 hr. As a substrate of luciferase, 100 μL of Steady-Glo (Promega) was added to each well and the mixture was thoroughly stirred. Immediately thereafter, the chemical luminescence due to luciferase was measured using TopCount NTX (Packard).
# The agonist activity (activity rate (%)) of compound (I) to PPARγ was calculated according to the following formula, as a relative activity when the agonist activity on addition of pioglitazone (10 μmol/L) was 100%.
# [2] = test system: spontaneously hypertensive rats (SHR); assay: Antihypertensive action by tail cuff method; assay type: in vivo, rat; conditions: oral once a day for 7 days, about 4 to 9 hr after final administration
# Experimental: 18- to 22-week-old spontaneously hypertensive rats (SHR) were used.
# Before drug administration, the body weight, blood pressure and heart rate of each rat were measured, and the rats were grouped such that these values are almost the same between groups. A solvent (0.5% methylcellulose solution) and a test compound were repeatedly administered orally once a day for 7 days. At about 4 to 9 hr after the final administration, systolic blood pressure and heart rate were non-invasively measured according to the following.
# The rats were placed in a cylindrical restrainer, heated to 37° C., and blood pressure and heart rate were measured under resting state using a Tail Cuff Method. For the measurement, a non-invasive blood pressure measurement apparatus (PS-600, Riken Kaihatsu, Tokyo) was used. The blood pressure and heart rate of each rat was measured 5 times, and the average was taken as the value of each rat.
# [3] = test system: spontaneously hypertensive rats (SHR); assay: Antihypertensive action by telemetry method; assay type: in vivo, rat; conditions: oral once a day for 4 days, 24 hr averages
# Source text: A telemetry transmitter was indwelled in the abdominal artery of spontaneously hypertensive rats (SHR), and the blood pressure and heart rate were monitored. The rats were acclimated and reared for 4 weeks or more, and only the rats with hypertension were used for the test. Before drug administration, the rats were grouped such that the blood pressure and heart rate of each rat would be of the same levels between the groups. A solvent (0.5% methylcellulose solution) and a test compound were repeatedly administered orally once a day for 4 days. The average systolic blood pressure for 24 hr, average diastolic blood pressure for 24 hr and average heart rate for 24 hr were calculated on each administration day.
SMILES,EC50 [1] [µM],"antihypertensive action (systolic blood pressure, tail cuff) [2]","antihypertensive action (blood pressure, telemetry) [3]"
"CCc1nc2c(C)ccnc2n1Cc1ccc2c(c1)CCc1ccccc1/C2=C(/C)c1nnn[nH]1 [Compound 47, (E)-2-(2-ethyl-7-methyl-3H-imidazo[4,5-b]pyridin-3-yl)methyl-5-[1-(1H-tetrazol-5-yl)ethylidene]-10,11-dihydro-5H-dibenzo[a,d]cycloheptene]",1.93,antihypertensive action,antihypertensive action
"C/C(=C1/c2ccccc2CCc2cc(Cn3c(C4CC4)nc4c(Cl)ccnc43)ccc21)c1noc(=O)[nH]1 [Compound 95, (E)-2-(7-chloro-2-cyclopropyl-3H-imidazo[4,5-b]pyridin-3-yl)methyl-5-[1-(5-oxo-4,5-dihydro-1,2,4-oxadiazol-3-yl)ethylidene]-10,11-dihydro-5H-dibenzo[a,d]cycloheptene]",0.527,antihypertensive action,antihypertensive action
"CCc1nc2c(Cl)ccnc2n1Cc1ccc2c(c1)COc1ccccc1/C2=C(/C)c1noc(=O)[nH]1 [Compound 137, (Z)-8-(7-chloro-2-ethyl-3H-imidazo[4,5-b]pyridin-3-yl)methyl-11-[1-(5-oxo-4,5-dihydro-1,2,4-oxadiazol-3-yl)ethylidene]-6,11-dihydrodibenzo[b,e]oxepine]",1.84,antihypertensive action,antihypertensive action
"CCc1nc2c(C)cc(C)nc2n1Cc1ccc2c(c1)CCc1ccccc1N2Cc1nnn[nH]1 [Compound S13, 2-(2-ethyl-5,7-dimethyl-3H-imidazo[4,5-b]pyridin-3-yl)methyl-5-(1H-tetrazol-5-yl)methyl-10,11-dihydro-5H-dibenzo[b,f]azepine]",4.56,antihypertensive action,antihypertensive action
